Laboratory results as given in the NIST ThermoML archive (doi:10.1021/acs.jced.8b00199).
± gives the expanded uncertainty stated by the source.

Experiment: molar heat capacity at constant pressure
Conditions: Liquid, Flow calorimetry

CCCCCCCC(=O)OCC [ethyl octanoate]
Conditions | molar heat capacity at constant pressure [J/K/mol]
294 K, 160 kPa | 339.59 ± 3.4
294 K, 3020 kPa | 339.17 ± 3.4
294.1 K, 5960 kPa | 338.74 ± 3.4
294.1 K, 9040 kPa | 338.3 ± 3.4
294.1 K, 12020 kPa | 337.9 ± 3.4
294.1 K, 14980 kPa | 337.54 ± 3.4
294.1 K, 17990 kPa | 337.13 ± 3.4
294.1 K, 21060 kPa | 336.71 ± 3.4
294.1 K, 23980 kPa | 336.29 ± 3.4
303.7 K, 2940 kPa | 344.3 ± 3.5
303.7 K, 6070 kPa | 343.83 ± 3.5
303.8 K, 8950 kPa | 343.35 ± 3.5
303.8 K, 12020 kPa | 342.9 ± 3.5
303.9 K, 15040 kPa | 342.5 ± 3.5
304 K, 18130 kPa | 342.09 ± 3.5
304 K, 21050 kPa | 341.67 ± 3.5
304 K, 24030 kPa | 341.18 ± 3.5
305.6 K, 160 kPa | 344.76 ± 3.5
314.3 K, 170 kPa | 350.6 ± 3.5
314.3 K, 3140 kPa | 350.17 ± 3.5
314.3 K, 6130 kPa | 349.71 ± 3.5
314.4 K, 9110 kPa | 349.29 ± 3.5
314.4 K, 12100 kPa | 348.89 ± 3.5
314.4 K, 15030 kPa | 348.53 ± 3.5
314.5 K, 18310 kPa | 348.11 ± 3.5
314.5 K, 20910 kPa | 347.72 ± 3.5
314.5 K, 24100 kPa | 347.25 ± 3.5
323.8 K, 130 kPa | 355.82 ± 3.6
323.8 K, 3030 kPa | 355.4 ± 3.6
323.8 K, 6160 kPa | 354.96 ± 3.6
323.8 K, 21030 kPa | 352.89 ± 3.6
323.9 K, 9300 kPa | 354.54 ± 3.6
323.9 K, 12120 kPa | 354.09 ± 3.6
323.9 K, 15230 kPa | 353.71 ± 3.6
323.9 K, 18110 kPa | 353.28 ± 3.6
323.9 K, 24100 kPa | 352.47 ± 3.6
333.7 K, 110 kPa | 360.49 ± 3.6
333.7 K, 3060 kPa | 360.06 ± 3.6
333.7 K, 6010 kPa | 359.65 ± 3.6
333.8 K, 9110 kPa | 359.17 ± 3.6
333.8 K, 11920 kPa | 358.75 ± 3.6
333.8 K, 15070 kPa | 358.37 ± 3.6
333.8 K, 18080 kPa | 357.9 ± 3.6
333.9 K, 21120 kPa | 357.47 ± 3.6
333.9 K, 24000 kPa | 357.06 ± 3.6
343.5 K, 130 kPa | 365.32 ± 3.7
343.5 K, 2950 kPa | 364.93 ± 3.7
343.5 K, 6040 kPa | 364.48 ± 3.7
343.5 K, 8990 kPa | 364.02 ± 3.7
343.6 K, 12070 kPa | 363.6 ± 3.7
343.7 K, 15050 kPa | 363.15 ± 3.7
343.8 K, 18070 kPa | 362.7 ± 3.7
343.8 K, 21010 kPa | 362.3 ± 3.7
343.8 K, 24090 kPa | 361.84 ± 3.7
353.6 K, 130 kPa | 370.06 ± 3.7
353.6 K, 3030 kPa | 369.66 ± 3.7
353.6 K, 6060 kPa | 369.24 ± 3.7
353.7 K, 8990 kPa | 368.8 ± 3.7
353.7 K, 11900 kPa | 368.4 ± 3.7
353.8 K, 15040 kPa | 367.99 ± 3.7
353.9 K, 18020 kPa | 367.57 ± 3.7
354 K, 20960 kPa | 367.14 ± 3.7
354 K, 24110 kPa | 366.72 ± 3.7

CCCCCCCCCC(=O)OCC [ethyl decanoate]
Conditions | molar heat capacity at constant pressure [J/K/mol]
294 K, 100 kPa | 400.39 ± 4
294 K, 3080 kPa | 399.98 ± 4
294 K, 6090 kPa | 399.53 ± 4
294 K, 8970 kPa | 399.07 ± 4
294 K, 12120 kPa | 398.72 ± 4
294.1 K, 14870 kPa | 398.28 ± 4
294.1 K, 17910 kPa | 397.82 ± 4
294.1 K, 21090 kPa | 397.38 ± 4
294.1 K, 24040 kPa | 396.93 ± 4
304 K, 130 kPa | 406.09 ± 4.1
304 K, 3030 kPa | 405.62 ± 4.1
304 K, 6160 kPa | 405.12 ± 4.1
304 K, 9030 kPa | 404.66 ± 4.1
304 K, 11950 kPa | 404.19 ± 4.1
304 K, 15090 kPa | 403.69 ± 4.1
304 K, 17870 kPa | 403.23 ± 4.1
304.1 K, 21100 kPa | 402.75 ± 4.1
304.1 K, 24050 kPa | 402.24 ± 4.1
313.9 K, 110 kPa | 411.45 ± 4.2
313.9 K, 2920 kPa | 410.92 ± 4.2
313.9 K, 5990 kPa | 410.45 ± 4.2
313.9 K, 9080 kPa | 409.95 ± 4.1
314 K, 11910 kPa | 409.43 ± 4.1
314 K, 15030 kPa | 408.93 ± 4.1
314 K, 18090 kPa | 408.41 ± 4.1
314 K, 21080 kPa | 407.89 ± 4.1
314 K, 24110 kPa | 407.34 ± 4.1
323.8 K, 150 kPa | 416.54 ± 4.2
323.9 K, 3040 kPa | 416.03 ± 4.2
323.9 K, 5930 kPa | 415.53 ± 4.2
323.9 K, 9070 kPa | 415.03 ± 4.2
323.9 K, 11980 kPa | 414.54 ± 4.2
323.9 K, 15050 kPa | 414.03 ± 4.2
324 K, 18050 kPa | 413.54 ± 4.2
324 K, 21210 kPa | 413.06 ± 4.2
324 K, 24030 kPa | 412.57 ± 4.2
333.8 K, 120 kPa | 423.19 ± 4.3
333.8 K, 2960 kPa | 422.7 ± 4.3
333.8 K, 5990 kPa | 422.28 ± 4.3
333.8 K, 9040 kPa | 421.77 ± 4.3
333.9 K, 12030 kPa | 421.17 ± 4.2
333.9 K, 14940 kPa | 420.66 ± 4.2
333.9 K, 18050 kPa | 420.15 ± 4.2
333.9 K, 21100 kPa | 419.65 ± 4.2
334 K, 24050 kPa | 419.11 ± 4.2
343.7 K, 150 kPa | 429.52 ± 4.3
343.7 K, 3000 kPa | 429.02 ± 4.3
343.7 K, 6190 kPa | 428.5 ± 4.3
343.8 K, 8990 kPa | 427.96 ± 4.3
343.8 K, 12100 kPa | 427.46 ± 4.3
343.8 K, 14910 kPa | 426.93 ± 4.3
343.8 K, 17990 kPa | 426.4 ± 4.3
343.8 K, 21010 kPa | 426.07 ± 4.3
343.9 K, 23970 kPa | 425.54 ± 4.3
353.7 K, 110 kPa | 435.96 ± 4.4
353.7 K, 2980 kPa | 435.41 ± 4.4
353.7 K, 6020 kPa | 434.91 ± 4.4
353.7 K, 8990 kPa | 434.4 ± 4.4
353.8 K, 11920 kPa | 433.87 ± 4.4
353.8 K, 14940 kPa | 433.36 ± 4.4
353.8 K, 17960 kPa | 432.85 ± 4.4
353.8 K, 21070 kPa | 432.33 ± 4.4
353.9 K, 23980 kPa | 431.81 ± 4.4
